Laboratory results reported in ChEMBL document CHEMBL3046959, “Influence of Absolute Configuration of Indanofan on Herbicidal Activity” (2001).
Calls of active or inactive are those of the source. The rule behind the calls is not given here.

tested on: Echinochloa crus-galli; assay: Herbicidal activity against 2.5 leaf stage of Echinochloa crus-galli (barnyard grass) after 2 weeks under greenhouse condition by pot test; type: functional

**Q.** `CCC1(CC2(c3cccc(Cl)c3)CO2)C(=O)c2ccccc2C1=O` (racemic) was tested. Which ED90 did it give?
**A.** inactive

**Q.** For `CCC1(CC2(c3cccc(Cl)c3)CO2)C(=O)c2ccccc2C1=O` (single isomer, unassigned; (-)) [(RS)-INDANOFAN], which ED90 is on record?
**A.** 0.0524 KgAi/ha

**Q.** With `CCC1(CC2(c3cccc(Cl)c3)CO2)C(=O)c2ccccc2C1=O` (single isomer, unassigned; (+)) [(RS)-INDANOFAN] as the compound, how does the ED90 read?
**A.** 0.0254 KgAi/ha
